Assay results published in article PMC4586589 (The Journal of General Physiology, 2015).

Biological target: T1, ELIC (Erwinia chrysanthemi ligand-gated ion channel) (Dickeya chrysanthemi, UniProt P0C7B7)
T1 sequence (P0C7B7 1-321): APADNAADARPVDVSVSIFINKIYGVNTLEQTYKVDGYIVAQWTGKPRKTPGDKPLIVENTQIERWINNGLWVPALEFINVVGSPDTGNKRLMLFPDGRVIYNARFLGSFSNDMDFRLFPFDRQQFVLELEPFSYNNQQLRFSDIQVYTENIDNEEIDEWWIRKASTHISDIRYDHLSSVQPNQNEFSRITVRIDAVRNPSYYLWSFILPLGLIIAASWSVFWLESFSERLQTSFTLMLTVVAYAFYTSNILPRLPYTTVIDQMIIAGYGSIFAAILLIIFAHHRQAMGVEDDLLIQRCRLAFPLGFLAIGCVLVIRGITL
Test: ITC
Type: cell-based

NCCCO [3-AP, 3-amino propanol]
EC50: 10.02 ± 0.05 mM
